The results in this text go back to publication PMC12844705, “Multitarget Mechanisms of (‒)‒Epigallocatechin-3-Gallate Against MRSA: From SraP L-Lectin Targeting to Synergistic Antibiotic Effects” (Pathogens, 2026).

Each structure is given as a SMILES string.

This assay has as its target T1, Serine-rich adhesin for platelets (SraP), L-Lectin module (Staphylococcus aureus, UniProt Q8NUJ3).
T1 construct: SraP L-Lectin domain (L-Lectin of MW2)
In words: SPR (Biacore T200, protein amine-coupled on CM5 chip, kinetic fit). It is filed as binding. (In general: Surface plasmon resonance follows binding to a sensor surface in real time, without labels.)

T1 sequence (Q8NUJ3 245-480): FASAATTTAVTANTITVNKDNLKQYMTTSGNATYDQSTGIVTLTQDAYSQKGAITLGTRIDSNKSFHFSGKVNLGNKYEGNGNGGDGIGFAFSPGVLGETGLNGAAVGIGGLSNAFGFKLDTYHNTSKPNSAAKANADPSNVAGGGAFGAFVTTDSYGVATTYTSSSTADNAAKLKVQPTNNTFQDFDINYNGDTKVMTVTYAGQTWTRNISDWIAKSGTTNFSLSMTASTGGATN

Consider `O=C(O[C@@H]1Cc2c(O)cc(O)cc2O[C@@H]1c1cc(O)c(O)c(O)c1)c1cc(O)c(O)c(O)c1` [EGCG], for which the affinity, expressed as Kd, was 4 µM.

The term Kd denotes the free concentration of one partner at which half of the binding sites on the other are occupied at equilibrium, for simple one-to-one binding. Read a low Kd as a tighter complex.
